According to patent US20030234382A1, “Sterilizing composition and method for sterilizing using the same” (NIPPON PEROXIDE CO., LTD., priority 2002, published 2003):

Test system: chaetomium spore
Assay: Sterilizing power test (D value) against chaetomium spores
Format: cell-based
Details: 40° C.; chaetomium spore solution 4×10^6 CFU/ml; peracetic acid and agent concentrations per experiment (c1-c3)
Experimental: 95 g of tap water was added to 5 g of an equilibrated peracetic acid solution containing 4 wt % of peracetic acid, 16 wt % of hydrogen peroxide and 15 wt % of acetic acid, and the resultant mixture was stirred to prepare a uniform aqueous solution. A peracetic acid concentration of the aqueous solution thus prepared was 2,000 ppm.
Each of sterilizing power test sample solutions was prepared by adding a predetermined amount of each of peracetic acid sterilizing power-improving agents shown in the following Table 1 to the peracetic acid aqueous solution prepared in the above paragraph (a) and stirring the mixture.
100 ml of the above prepared test sample solution was placed in an Erlenmeyer flask, and was maintained at 40° C. 1 ml of a chaetomium spore solution having an inoculated bacteria number of 4×10^6 CFU/ml was inoculated therein, and 1 ml of a sample was taken from the Erlenmeyer flask respectively at 10 seconds, 20 seconds, 30 seconds, 60 seconds and 120 seconds after the inoculation. […] Thereafter, a number of live bacteria remaining in each sample optionally diluted was measured in accordance with plate mix-diluting cuture method using a potato dextrose agar medium, and a D value (time (unit: minute) taken to reduce a bacteria number to 1/10) was determined as a standard of sterilizing power. […]

OCCc1ccccc1 [compound 8]
D40 (D value: time taken to reduce a bacteria number to 1/10): 238 min
